Values after ≈ are worked out from the molar mass of the structure shown.
Assays:
[1] = biological target: T1, human ether a go-go related gene (hERG) K+ channel (Homo sapiens, UniProt Q12809); experiment: hERG inhibition assay, QPatch HTX automated electrophysiology; format: cell-based; conditions: CHO cell line stably expressing hERG, whole-cell patch clamp, maximum test concentration 300 μM
T1 construct: Chinese Hamster Ovary cell line stably expressing the full-length hERG potassium channel; expressed in transfected cells
T1 sequence (Q12809 whole entry): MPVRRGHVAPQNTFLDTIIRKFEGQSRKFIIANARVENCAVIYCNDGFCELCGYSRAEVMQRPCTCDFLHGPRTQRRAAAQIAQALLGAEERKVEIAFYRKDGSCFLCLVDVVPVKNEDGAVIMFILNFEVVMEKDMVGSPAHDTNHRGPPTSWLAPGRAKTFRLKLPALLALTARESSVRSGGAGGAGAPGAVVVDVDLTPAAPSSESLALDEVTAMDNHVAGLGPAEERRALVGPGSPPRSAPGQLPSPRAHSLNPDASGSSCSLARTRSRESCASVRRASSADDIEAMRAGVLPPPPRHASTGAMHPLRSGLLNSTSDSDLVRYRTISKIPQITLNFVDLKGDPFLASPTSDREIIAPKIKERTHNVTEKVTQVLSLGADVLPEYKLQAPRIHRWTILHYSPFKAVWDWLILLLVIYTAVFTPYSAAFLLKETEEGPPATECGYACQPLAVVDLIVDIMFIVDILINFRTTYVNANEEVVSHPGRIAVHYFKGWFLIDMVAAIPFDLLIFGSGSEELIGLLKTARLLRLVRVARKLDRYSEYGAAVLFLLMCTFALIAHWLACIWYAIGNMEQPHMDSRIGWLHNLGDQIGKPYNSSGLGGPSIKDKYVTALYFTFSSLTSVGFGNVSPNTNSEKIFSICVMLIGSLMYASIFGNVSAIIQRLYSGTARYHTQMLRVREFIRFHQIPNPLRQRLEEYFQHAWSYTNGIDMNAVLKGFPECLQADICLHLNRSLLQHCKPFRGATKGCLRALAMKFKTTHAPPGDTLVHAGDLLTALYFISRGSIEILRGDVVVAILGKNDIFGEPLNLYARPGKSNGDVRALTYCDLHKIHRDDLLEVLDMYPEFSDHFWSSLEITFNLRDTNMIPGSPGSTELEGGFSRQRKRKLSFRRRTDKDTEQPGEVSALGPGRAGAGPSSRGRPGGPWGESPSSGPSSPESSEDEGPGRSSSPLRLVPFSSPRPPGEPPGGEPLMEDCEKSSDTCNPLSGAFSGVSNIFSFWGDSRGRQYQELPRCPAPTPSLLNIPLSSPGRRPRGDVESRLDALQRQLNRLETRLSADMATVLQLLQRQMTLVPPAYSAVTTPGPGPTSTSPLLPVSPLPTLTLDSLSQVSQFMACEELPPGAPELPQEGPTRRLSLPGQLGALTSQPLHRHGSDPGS
Description: The compounds were tested for inhibition of the human ether a go-go related gene (hERG) K+ channel using QPatch HTX automated electrophysiology.
Compounds were solubilised to 100 mM in DMSO before dilution in HBPS to 300 μM.
Electrophysiological recordings were made from a Chinese Hamster Ovary cell line stably expressing the full-length hERG potassium channel. Single cell ionic currents were measured in whole-cell patch clamp configuration at room temperature (21-23° C.) using the QPatch HTX platform (Sophion). Intracellular solution contained (mM): 120 KF, 20 KCl, 10 EGTA, 10 HEPES and was buffered to pH 7.3. […] Cells were clamped at a holding potential of −80 mV. […] This sweep was repeated 10 times at 10 s intervals. hERG currents were measured from the tail step and referenced to the holding current. Compounds were then incubated for 2 minutes prior to a second measurement of ion channel current using an identical pulse train.

E. coli topoisomerase IV = E. coli topoisomerase IV (Escherichia coli, UniProt P0AFI2+P20083); experiment: biochemical; conditions: decatenation assay; read-out: E. coli Topo IV IC50
Sequence of E. coli topoisomerase IV (P20083 whole entry): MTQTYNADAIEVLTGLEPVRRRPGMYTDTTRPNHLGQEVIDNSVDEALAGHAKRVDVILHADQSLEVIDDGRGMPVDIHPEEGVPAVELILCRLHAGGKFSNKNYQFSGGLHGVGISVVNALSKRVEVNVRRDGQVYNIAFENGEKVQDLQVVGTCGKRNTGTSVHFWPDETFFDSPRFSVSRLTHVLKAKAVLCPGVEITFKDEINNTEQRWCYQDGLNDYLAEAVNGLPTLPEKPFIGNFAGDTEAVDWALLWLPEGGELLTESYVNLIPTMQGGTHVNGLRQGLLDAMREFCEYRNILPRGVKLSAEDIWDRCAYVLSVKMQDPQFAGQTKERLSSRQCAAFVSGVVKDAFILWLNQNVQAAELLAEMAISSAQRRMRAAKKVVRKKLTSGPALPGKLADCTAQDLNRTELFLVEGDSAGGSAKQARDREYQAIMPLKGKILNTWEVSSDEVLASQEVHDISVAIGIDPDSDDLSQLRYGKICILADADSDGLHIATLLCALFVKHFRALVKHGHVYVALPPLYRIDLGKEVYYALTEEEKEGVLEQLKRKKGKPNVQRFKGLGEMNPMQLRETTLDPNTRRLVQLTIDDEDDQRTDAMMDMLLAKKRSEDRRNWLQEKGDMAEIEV
Sequence of E. coli topoisomerase IV (P0AFI2 whole entry): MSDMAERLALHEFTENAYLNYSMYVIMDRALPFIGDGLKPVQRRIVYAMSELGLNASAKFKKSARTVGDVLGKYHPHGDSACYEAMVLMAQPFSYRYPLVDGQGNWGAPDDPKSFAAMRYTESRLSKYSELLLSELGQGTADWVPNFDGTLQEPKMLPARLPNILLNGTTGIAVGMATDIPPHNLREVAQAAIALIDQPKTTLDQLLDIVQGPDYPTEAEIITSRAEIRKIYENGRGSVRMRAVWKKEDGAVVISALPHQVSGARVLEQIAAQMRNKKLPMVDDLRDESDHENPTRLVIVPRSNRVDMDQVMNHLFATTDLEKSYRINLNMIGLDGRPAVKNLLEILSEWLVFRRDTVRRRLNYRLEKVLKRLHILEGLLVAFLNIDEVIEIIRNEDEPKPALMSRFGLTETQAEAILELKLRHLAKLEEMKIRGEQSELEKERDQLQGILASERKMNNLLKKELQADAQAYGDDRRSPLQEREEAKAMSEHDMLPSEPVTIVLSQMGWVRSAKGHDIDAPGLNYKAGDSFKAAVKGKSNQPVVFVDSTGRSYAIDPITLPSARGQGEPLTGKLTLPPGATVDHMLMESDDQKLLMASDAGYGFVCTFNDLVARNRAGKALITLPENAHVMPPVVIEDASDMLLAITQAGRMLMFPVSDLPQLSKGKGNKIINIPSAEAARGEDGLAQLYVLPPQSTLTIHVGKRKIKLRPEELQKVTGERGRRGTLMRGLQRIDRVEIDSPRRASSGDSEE

E. coli DNA gyrase = E. coli DNA gyrase (Escherichia coli, UniProt P0AES4+P0AES6); experiment: biochemical; conditions: supercoiling assay
Sequence of E. coli DNA gyrase (P0AES4 whole entry, one chain of several): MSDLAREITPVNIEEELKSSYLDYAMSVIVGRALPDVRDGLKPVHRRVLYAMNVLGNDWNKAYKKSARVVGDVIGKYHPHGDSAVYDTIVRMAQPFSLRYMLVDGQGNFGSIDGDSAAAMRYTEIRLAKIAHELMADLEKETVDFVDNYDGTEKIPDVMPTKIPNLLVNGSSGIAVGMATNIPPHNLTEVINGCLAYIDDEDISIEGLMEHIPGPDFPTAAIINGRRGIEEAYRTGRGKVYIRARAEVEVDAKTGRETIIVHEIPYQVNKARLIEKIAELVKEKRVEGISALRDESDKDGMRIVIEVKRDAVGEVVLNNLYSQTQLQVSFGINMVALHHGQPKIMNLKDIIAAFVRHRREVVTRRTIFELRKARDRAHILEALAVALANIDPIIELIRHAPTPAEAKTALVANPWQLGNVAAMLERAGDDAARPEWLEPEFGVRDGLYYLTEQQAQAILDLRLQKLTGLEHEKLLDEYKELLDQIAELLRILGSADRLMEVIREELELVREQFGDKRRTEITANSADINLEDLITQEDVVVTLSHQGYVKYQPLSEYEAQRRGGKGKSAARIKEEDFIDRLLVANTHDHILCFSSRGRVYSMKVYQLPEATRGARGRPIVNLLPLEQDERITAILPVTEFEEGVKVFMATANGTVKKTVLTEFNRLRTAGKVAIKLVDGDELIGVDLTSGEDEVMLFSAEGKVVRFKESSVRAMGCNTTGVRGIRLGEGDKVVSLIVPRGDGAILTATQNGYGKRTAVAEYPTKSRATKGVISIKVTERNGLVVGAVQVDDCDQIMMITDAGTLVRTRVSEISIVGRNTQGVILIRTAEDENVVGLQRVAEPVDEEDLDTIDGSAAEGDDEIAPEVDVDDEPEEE

[2] = tested on: Acinetobacter baumannii ATCC 19606; experiment: Minimum Inhibitory Concentration (MIC) in LB media; format: cell-based; conditions: Acinetobacter baumannii, ATCC19606;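 also: twofold compound dilutions from DMSO stocks in LB broth microplates, overnight incubation at 37 °C, growth read by absorbance at 600 nm, with DMSO and sterility controls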
[3] = tested on: Staphylococcus aureus ATCC 29213; experiment: Minimum Inhibitory Concentration (MIC) in LB media; format: cell-based; conditions: Staphylococcus aureus, ATCC29213, read-out: Minimum Inhibitory Concentration S. aureus ATCC 29213
Text: (§1) The compounds of Formula (I) are of interest due to their potent antibacterial effects. The ability of the invention compounds disclosed herein to achieve an antibacterial effect may be evaluated with regard to their ability to inhibit the growth of bacterial species like Escherichia coli ATCC 25922, Staphylococcus aureus ATCC 29213, Klebsiella pneumoniae ATCC 13883, Acinetobacter baumannii ATCC 19606, Pseudomonas aeruginosa ATCC 27853, Enterococcus faecalis ATCC 29212 and Enterococcus faecalis ATCC 29212 using an assay based on the following Minimum Inhibitory Concentration (MIC) protocol:
(§2) The medium sterility is checked by incubating at 37° C. for a period of 48 h.
(§3) Bacterial cultures that are stored as glycerol stocks at −80° C. are sub cultured on LB agar plates to obtain isolated colonies. A single colony of each strain is cultured in LB broth. The cultures are incubated at 37 C, 200 rpm till they reach an optical density (OD at 600 nm) of 0.8 to 1. […] Test compounds are dissolved in dimethyl sulfoxide (DMSO) to a stock concentration of 4 mg/ml. A twofold dilution series of this DMSO stock is prepared in a 96 well V bottom microtitre plate from rows A to H. A 3 μL volume of these dilutions are transferred to a 96-well flat bottom microtitre assay plate. Controls to monitor the effects of DMSO and media sterility are included. Each well is inoculated with 150 μL of the above diluted culture. The plates are incubated at 37° C. overnight in a humidified incubator. The following morning, the plates are read using a Spectrophotometer at 600 nm wavelength. […] The antibacterial activity (MIC) determined against representative Gram positive (S. aureus, E. faecalis) and Gram negative (E.coli, -P. aeruginosa and A. baumannii) pathogen were reported Table 1.

[4] = tested on: Escherichia coli ATCC 25922; experiment: Minimum Inhibitory Concentration (MIC) in LB media; format: cell-based; conditions: Escherichia coli, ATCC25922, read-out: Minimum Inhibitory Concentration E. coli ATCC 25922
Text: as §1, §2, §3

[5] = tested on: Pseudomonas aeruginosa ATCC 27853; experiment: Minimum Inhibitory Concentration (MIC) in LB media; format: cell-based; conditions: Pseudomonas aeruginosa, ATCC27853, read-out: Minimum Inhibitory Concentration P. aeruginosa ATCC 27853
Text: as §1, §2, §3

[6] = tested on: Klebsiella pneumoniae ATCC 13883; experiment: Minimum Inhibitory Concentration (MIC) in LB media; format: cell-based; conditions: Klebsiella pneumoniae, ATCC13883, read-out: Minimum Inhibitory Concentration K. pneumoniae ATCC 13883
Text: as §1, §2, §3

[7] = tested on: Enterococcus faecalis ATCC 29212; experiment: Minimum Inhibitory Concentration (MIC) in LB media; format: cell-based; conditions: Enterococcus faecalis, ATCC29212, read-out: Minimum Inhibitory Concentration E. faecalis ATCC 29212
Text: as §1, §2, §3

SMILES | IC50 [1] | IC50 (E. coli topoisomerase IV) | IC50 (E. coli DNA gyrase) | MIC [2] | MIC [3] | MIC [4] | MIC [5] | MIC [6] | MIC [7]
Cn1c(=O)ccc2ccc(F)c(C[C@H](O)CNC[C@H]3CN(c4ccc5c(n4)NC(=O)CO5)C(=O)O3)c21 (single isomer, unassigned) [Example 18] | 237000 nM | 24 nM | 13 nM | 0.5 µg/mL (≈ 1.01 µM) | 0.125 µg/mL (≈ 0.251 µM) | 0.125 µg/mL (≈ 0.251 µM) | 1 µg/mL (≈ 2.01 µM) | 0.125 µg/mL (≈ 0.251 µM) | 0.5 µg/mL (≈ 1.01 µM)
Cn1c(=O)ccc2ccc(F)c(CCNCC[C@H]3CN(c4cnc5c(n4)NC(=O)CO5)C(=O)O3)c21 (single isomer, unassigned) [Example 24] | > 300000 nM | 123 nM | 25 nM | 0.5 µg/mL (≈ 1.04 µM) | 0.125 µg/mL (≈ 0.259 µM) | 0.06 µg/mL (≈ 0.124 µM) | 0.25 µg/mL (≈ 0.518 µM) | 0.125 µg/mL (≈ 0.259 µM) | 0.125 µg/mL (≈ 0.259 µM)
Cn1c(=O)ccc2ccc(F)c(CCNCC[C@@H]3CN(c4cnc5c(n4)NC(=O)CO5)C(=O)O3)c21 (single isomer, unassigned) [Example 25] | 101000 nM | 21 nM | 17 nM | 0.5 µg/mL (≈ 1.04 µM) | 0.06 µg/mL (≈ 0.124 µM) | 0.06 µg/mL (≈ 0.124 µM) | 0.25 µg/mL (≈ 0.518 µM) | 0.25 µg/mL (≈ 0.518 µM) | 0.5 µg/mL (≈ 1.04 µM)
CN1C(=O)CCc2ccc(F)c(CCNC[C@@H]3CN(c4ccc5c(n4)NC(=O)CO5)C(=O)O3)c21 [Example 3, (R)-6-(5-(((2-(7-fluoro-1-methyl-2-oxo-1,2,3,4-tetrahydroquinolin-8-yl)ethyl)amino)methyl)-2-oxooxazolidin-3-yl)-2H-pyrido[3,2-b][1,4]oxazin-3(4H)-one] | 12000 nM | – | – | 1 µg/mL (≈ 2.13 µM) | 0.5 µg/mL (≈ 1.07 µM) | 0.5 µg/mL (≈ 1.07 µM) | 16 µg/mL (≈ 34.1 µM) | 2 µg/mL (≈ 4.26 µM) | 0.25 µg/mL (≈ 0.533 µM)
Cn1c(=O)cnc2ccc(F)c(CCNC[C@H]3CN(c4ccc5c(n4)NC(=O)CO5)C(=O)O3)c21 [Example 4, (S)-6-(5-(((2-(6-fluoro-4-methyl-3-oxo-3,4-dihydroquinoxalin-5-yl)ethyl)amino)methyl)-2-oxooxazolidin-3-yl)-2H-pyrido[3,2-b][1,4]oxazin-3(4H)-one] | – | 93 nM | 7 nM | ≤ 0.015 µg/mL | ≤ 0.015 µg/mL | 0.03 µg/mL (≈ 0.064 µM) | 0.25 µg/mL (≈ 0.534 µM) | 0.03 µg/mL (≈ 0.064 µM) | 0.06 µg/mL (≈ 0.128 µM)
Cn1c(=O)cnc2ccc(F)c(CCNC[C@@H]3CN(c4ccc5c(n4)NC(=O)CO5)C(=O)O3)c21 [Example 5, (R)-6-(5-(((2-(6-fluoro-4-methyl-3-oxo-3,4-dihydroquinoxalin-5-yl)ethyl)amino)methyl)-2-oxooxazolidin-3-yl)-2H-pyrido[3,2-b][1,4]oxazin-3(4H)-one] | 14000 nM | – | – | 0.03 µg/mL (≈ 0.064 µM) | 0.015 µg/mL (≈ 0.032 µM) | 0.06 µg/mL (≈ 0.128 µM) | 1 µg/mL (≈ 2.13 µM) | 0.125 µg/mL (≈ 0.267 µM) | 0.25 µg/mL (≈ 0.534 µM)
Cc1nc2ccc(F)c(CCNC[C@H]3CN(c4ccc5c(n4)NC(=O)CO5)C(=O)O3)c2n(C)c1=O [Example 6, (S)-6-(5-(((2-(6-fluoro-2,4-dimethyl-3-oxo-3,4-dihydroquinoxalin-5-yl)ethyl)amino)methyl)-2-oxooxazolidin-3-yl)-2H-pyrido[3,2-b][1,4]oxazin-3(4H)-one] | – | 30 nM | 3.4 nM | 0.015 µg/mL (≈ 0.0311 µM) | 0.015 µg/mL (≈ 0.0311 µM) | 0.06 µg/mL (≈ 0.124 µM) | 1 µg/mL (≈ 2.07 µM) | 0.125 µg/mL (≈ 0.259 µM) | 0.125 µg/mL (≈ 0.259 µM)
Cn1c(=O)ccc2ccc(F)c(CCNC[C@H]3CN(c4ccc5c(n4)NC(=O)CO5)C(=O)O3)c21 [Example 8, (S)-6-(5-(((2-(7-fluoro-1-methyl-2-oxo-1,2-dihydroquinolin-8-yl)ethyl)amino)methyl)-2-oxooxazolidin-3-yl)-2H-pyrido[3,2-b][1,4]oxazin-3(4H)-one] | 17000 nM | – | – | ≤ 0.015 µg/mL | ≤ 0.015 µg/mL | 0.03 µg/mL (≈ 0.0642 µM) | 0.25 µg/mL (≈ 0.535 µM) | 0.03 µg/mL (≈ 0.0642 µM) | 0.06 µg/mL (≈ 0.128 µM)
O=C1COc2ccc(N3C[C@H](CNCCc4c(F)ccc5ncc(=O)n(CCO)c45)OC3=O)nc2N1 [Example 9, (S)-6-(5-(((2-(6-fluoro-4-(2-hydroxyethyl)-3-oxo-3,4-dihydroquinoxalin-5-yl)ethyl)amino)methyl)-2-oxooxazolidin-3-yl)-2H-pyrido[3,2-b][1,4]oxazin-3(4H)-one] | 68700 nM | 175 nM | 3.2 nM | 0.06 µg/mL (≈ 0.12 µM) | 0.03 µg/mL (≈ 0.0602 µM) | 0.06 µg/mL (≈ 0.12 µM) | 1 µg/mL (≈ 2.01 µM) | 0.13 µg/mL (≈ 0.261 µM) | 0.125 µg/mL (≈ 0.251 µM)
Cn1c(=O)cc(CO)c2ccc(F)c(CCNC[C@H]3CN(c4ccc5c(n4)NC(=O)CO5)C(=O)O3)c21 [Example 12, (S)-6-(5-(((2-(7-fluoro-4-(hydroxymethyl)-1-methyl-2-oxo-1,2-dihydroquinolin-8-yl)ethyl)amino)methyl)-2-oxooxazolidin-3-yl)-2H-pyrido[3,2-b][1,4]oxazin-3(4H)-one] | – | 176 nM | < 100 nM | 1 µg/mL (≈ 2.01 µM) | 0.25 µg/mL (≈ 0.503 µM) | 0.25 µg/mL (≈ 0.503 µM) | 1 µg/mL (≈ 2.01 µM) | 0.5 µg/mL (≈ 1.01 µM) | 0.5 µg/mL (≈ 1.01 µM)
CCn1c(=O)ccc2ccc(F)c(CCNC[C@H]3CN(c4cnc5c(n4)NC(=O)CO5)C(=O)O3)c21 [Example 26, (S)-6-(5-(((2-(1-ethyl-7-fluoro-2-oxo-1,2-dihydroquinolin-8-yl)ethyl)amino)methyl)-2-oxooxazolidin-3-yl)-2H-pyrazino[2,3-b][1,4]oxazin-3(4H)-one] | – | – | – | 0.03 µg/mL (≈ 0.0622 µM) | ≤ 0.015 µg/mL | 0.03 µg/mL (≈ 0.0622 µM) | 0.5 µg/mL (≈ 1.04 µM) | 0.03 µg/mL (≈ 0.0622 µM) | 0.03 µg/mL (≈ 0.0622 µM)
CCn1c(=O)ccc2ccc(F)c(CCNCC[C@H]3CN(c4cnc5c(n4)NC(=O)CO5)C(=O)O3)c21 [Example 27, (S)-6-(5-(2-((2-(1-ethyl-7-fluoro-2-oxo-1,2-dihydroquinolin-8-yl)ethyl)amino)ethyl)-2-oxooxazolidin-3-yl)-2H-pyrazino[2,3-b][1,4]oxazin-3(4H)-one] | – | – | – | 0.06 µg/mL (≈ 0.121 µM) | 0.015 µg/mL (≈ 0.0302 µM) | 0.03 µg/mL (≈ 0.0604 µM) | 0.5 µg/mL (≈ 1.01 µM) | 0.125 µg/mL (≈ 0.252 µM) | 0.06 µg/mL (≈ 0.121 µM)
Cc1cc(=O)n(C)c2c(CCNC[C@H]3CN(c4cnc5c(n4)NC(=O)CO5)C(=O)O3)c(F)ccc12 [Example 28, (S)-6-(5-(((2-(7-fluoro-1,4-dimethyl-2-oxo-1,2-dihydroquinolin-8-yl)ethyl)amino)methyl)-2-oxooxazolidin-3-yl)-2H-pyrazino[2,3-b][1,4]oxazin-3(4H)-one] | – | – | – | 0.125 µg/mL (≈ 0.259 µM) | ≤ 0.015 µg/mL | 0.06 µg/mL (≈ 0.124 µM) | 0.5 µg/mL (≈ 1.04 µM) | 0.06 µg/mL (≈ 0.124 µM) | 0.06 µg/mL (≈ 0.124 µM)
Cn1c(=O)ccc2ncc(F)c(CCNC[C@H]3CN(c4cnc5c(n4)NC(=O)CO5)C(=O)O3)c21 [Example 29, (S)-6-(5-(((2-(3-fluoro-5-methyl-6-oxo-5,6-dihydro-1,5-naphthyridin-4-yl)ethyl)amino)methyl)-2-oxooxazolidin-3-yl)-2H-pyrazino[2,3-b][1,4]oxazin-3(4H)-one] | – | – | – | 0.5 µg/mL (≈ 1.07 µM) | 0.03 µg/mL (≈ 0.0639 µM) | 0.125 µg/mL (≈ 0.266 µM) | 0.5 µg/mL (≈ 1.07 µM) | 0.125 µg/mL (≈ 0.266 µM) | 0.125 µg/mL (≈ 0.266 µM)
Cn1c(=O)cnc2ccc(F)c(CCNC[C@H]3CN(c4cnc5c(n4)NC(=O)CO5)C(=O)O3)c21 [Example 30, (S)-6-(5-(((2-(6-fluoro-4-methyl-3-oxo-3,4-dihydroquinoxalin-5-yl)ethyl)amino)methyl)-2-oxooxazolidin-3-yl)-2H-pyrazino[2,3-b][1,4]oxazin-3(4H)-one] | – | – | – | 0.06 µg/mL (≈ 0.128 µM) | 0.03 µg/mL (≈ 0.0639 µM) | 0.06 µg/mL (≈ 0.128 µM) | 0.25 µg/mL (≈ 0.533 µM) | 0.06 µg/mL (≈ 0.128 µM) | 0.125 µg/mL (≈ 0.266 µM)

Source: patent publication US10912780B2, “Heterocyclic compounds useful as anti-bacterial agents and method for production thereof” (Bugworks Research, Inc., priority 2017, dated 2021)
